Source: ChEMBL document CHEMBL4373688 (Medchemcomm, 2019)

What was measured:
[1] = target: Vascular endothelial growth factor receptor 2 (Homo sapiens, UniProt P35968)
Description: Inhibition of human VEGFR2 (805 to 1171 residues) by ELISA

[2] = target: Fibroblast growth factor receptor 3 (Homo sapiens, UniProt P22607); assay: biochemical; type: cell-based, Sf9
Description: Inhibition of wild type His-tagged human FGFR3 (455 to 763 residues) expressed in Sf9 insect cells by ELISA

[3] = species: Homo sapiens; assay: Selectivity ratio of IC50 for wild type His-tagged human FGFR3 (455 to 763 residues) expressed in Sf9 insect cells to IC50 for human VEGFR2 (805 to 1171 residues)

Chain of Fibroblast growth factor receptor 3 (P22607 whole entry, the tested form may be a part): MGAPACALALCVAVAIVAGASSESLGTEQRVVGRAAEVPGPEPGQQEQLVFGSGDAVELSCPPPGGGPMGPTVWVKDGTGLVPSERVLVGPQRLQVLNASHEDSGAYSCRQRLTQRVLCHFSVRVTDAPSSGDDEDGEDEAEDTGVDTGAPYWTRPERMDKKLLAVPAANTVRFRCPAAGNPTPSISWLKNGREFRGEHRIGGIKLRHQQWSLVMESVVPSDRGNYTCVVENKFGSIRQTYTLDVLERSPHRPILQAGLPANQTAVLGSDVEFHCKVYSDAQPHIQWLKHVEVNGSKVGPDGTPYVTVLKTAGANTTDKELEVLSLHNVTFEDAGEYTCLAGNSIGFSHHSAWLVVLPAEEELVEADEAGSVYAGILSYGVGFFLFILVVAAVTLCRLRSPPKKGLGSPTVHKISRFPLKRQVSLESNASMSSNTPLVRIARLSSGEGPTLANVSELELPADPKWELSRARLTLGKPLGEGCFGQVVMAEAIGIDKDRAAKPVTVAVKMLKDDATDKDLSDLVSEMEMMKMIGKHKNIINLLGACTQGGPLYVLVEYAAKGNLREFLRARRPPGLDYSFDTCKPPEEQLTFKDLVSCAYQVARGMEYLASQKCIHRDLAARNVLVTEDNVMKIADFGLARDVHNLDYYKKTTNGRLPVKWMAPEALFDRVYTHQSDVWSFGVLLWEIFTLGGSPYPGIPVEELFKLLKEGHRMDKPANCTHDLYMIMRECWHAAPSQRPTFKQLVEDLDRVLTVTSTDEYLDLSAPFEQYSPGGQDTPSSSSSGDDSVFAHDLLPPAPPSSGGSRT
Chain of Vascular endothelial growth factor receptor 2 (P35968 whole entry): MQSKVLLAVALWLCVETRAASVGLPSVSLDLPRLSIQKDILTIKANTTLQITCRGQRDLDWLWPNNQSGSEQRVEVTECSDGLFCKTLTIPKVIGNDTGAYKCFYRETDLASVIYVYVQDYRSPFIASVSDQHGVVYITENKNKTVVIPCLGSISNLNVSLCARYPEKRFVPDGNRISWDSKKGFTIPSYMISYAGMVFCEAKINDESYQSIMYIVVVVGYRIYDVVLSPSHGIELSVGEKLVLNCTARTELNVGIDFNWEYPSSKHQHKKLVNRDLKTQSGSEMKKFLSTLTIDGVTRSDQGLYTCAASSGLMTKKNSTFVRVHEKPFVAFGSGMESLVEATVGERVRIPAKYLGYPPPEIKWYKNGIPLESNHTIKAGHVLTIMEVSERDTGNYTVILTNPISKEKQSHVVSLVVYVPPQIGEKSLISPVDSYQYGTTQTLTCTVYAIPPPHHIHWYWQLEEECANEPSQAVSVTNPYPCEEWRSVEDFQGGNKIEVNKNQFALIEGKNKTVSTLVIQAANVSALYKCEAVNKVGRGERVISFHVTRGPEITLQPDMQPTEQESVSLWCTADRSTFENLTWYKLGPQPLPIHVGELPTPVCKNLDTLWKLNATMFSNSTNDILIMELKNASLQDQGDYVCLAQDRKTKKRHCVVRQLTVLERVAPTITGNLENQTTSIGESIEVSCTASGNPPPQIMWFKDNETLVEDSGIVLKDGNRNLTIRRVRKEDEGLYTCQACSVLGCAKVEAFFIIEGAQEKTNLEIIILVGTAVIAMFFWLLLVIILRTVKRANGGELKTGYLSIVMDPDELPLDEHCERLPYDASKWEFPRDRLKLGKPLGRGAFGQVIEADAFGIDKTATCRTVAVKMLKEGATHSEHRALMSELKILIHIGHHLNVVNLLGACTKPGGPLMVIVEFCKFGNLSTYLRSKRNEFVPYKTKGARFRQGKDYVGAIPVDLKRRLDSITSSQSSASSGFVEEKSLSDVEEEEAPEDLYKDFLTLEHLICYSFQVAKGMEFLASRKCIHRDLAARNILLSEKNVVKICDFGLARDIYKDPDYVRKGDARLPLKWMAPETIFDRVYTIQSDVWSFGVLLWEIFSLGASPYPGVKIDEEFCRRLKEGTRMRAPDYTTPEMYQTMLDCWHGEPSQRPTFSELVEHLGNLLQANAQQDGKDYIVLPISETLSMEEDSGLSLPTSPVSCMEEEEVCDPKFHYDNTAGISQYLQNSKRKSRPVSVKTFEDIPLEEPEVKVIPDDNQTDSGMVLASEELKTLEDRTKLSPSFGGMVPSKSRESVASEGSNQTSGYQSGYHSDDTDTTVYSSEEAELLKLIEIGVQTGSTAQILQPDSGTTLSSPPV

Row | SMILES | IC50 [1] | IC50 [2] | Ratio IC50 [3]
1 | Cn1cc(-c2cnc3ccc(Cl)cc3n2)cn1 | 0.46 µM | 6.5 µM | 
2 | COc1ccc(CNc2ccc3ncc(-c4cnn(C)c4)nc3c2)c(OC)c1 | 5.5 µM | 0.33 µM | 15
3 | Nc1ccc2nccnc2c1 | 140 µM | 120 µM | 
4 | COc1cc(Nc2ccc3ncc(-c4cnn(C)c4)nc3c2)cc(OC)c1 | 0.56 µM | 0.012 µM | 
